# Experimental data from patent US7998681B2, “Diagnosis and therapy of antibody-mediated inflammatory auto-immune disorders” (Los Angeles Biomedical Research Institute at Harbor-UCLA …, priority 2000, dated 2011).
# What was measured:
# IL-16 and RANTES = assay: Expression of IL-16 and RANTES (FIG. 4); type: cell-based
# From the text: Referring to FIG. 5, these findings on the role of IL-16 and RANTES in the fibroblast/lymphocyte inflammation cascade provide options for therapies for TAO, RA and other antibody-mediated inflammatory auto-immune disorders. The method of the therapeutic aspect of the invention involves inhibiting the activity of the two chemoattractant molecules that are substantial contributors to the inflammation cascade, IL-16 and RANTES. IL-16 inhibitors include, but are not limited to, rapamycin, wortmannin, caspase-3 inhibitor, and anti-IL-16 antibody. RANTES inhibitors include, but are not limited to, SB203580, and anti-RANTES antibody. […] These compounds either block translation of the chemoattractant molecules, prevent release of chemoattractant molecules from the cell after they are translated, or neutralize the chemoattractant molecules' ability to cause lymphocytic chemotaxis after they are released.
# TAO fibroblasts = assay: PGE2 synthesis in TAO fibroblasts; type: cell-based, human; details: FIG. 7A
# Protocol: FIGS. 7A and 7B show the up-regulation of PGE2 synthesis and blockage with SC58125 (a PGHS-2 inhibitor) and dexamethasone (7A) and PGHS-2 expression (7B) in TAO fibroblasts.
# Referring to FIGS. 7A and 7B, CD40 ligation in orbital fibroblasts results in the induction of PGHS-2 and leads to the over-production of PGE2. […] CD40 ligation in these cultures results in the intermediate activation of IL-1α gene expression. This induction occurs after 6 h of treatment and is mediated at the pre-translational level. IL-1β is undetectable in orbital fibroblasts and is not induced by CD154. Interrupting the expression, receptor binding or activity of IL-1α attenuates the induction of PGHS-2 provoked by CD40 ligation. It is notable that CD40 is over-expressed by thyroid epithelium in Graves' disease and provokes constitutive PGHS-2 expression. Moreover, functional CD40 is expressed by human thyroid fibroblasts.
# orbital fibroblasts [1] = assay: Differentiation of orbital fibroblasts into adipocytes; type: cell-based, human; details: parent strain, transient exposure; flow analysis
# From the text: FIGS. 13A-13D show induction of differentiation of Thy-1^− orbital fibroblasts into adipocytes by the […] ligand rosiglitazone. A control phase contrast of parental strain (B) flow cytometric analysis of parental strain showing absence of adipocytes (C) phase contrast post-differentiation showing adipocyte clusters (D) flow analysis showing 44% adipocyte differentiated.
# An under-appreciated feature of the tissue remodeling associated with TAO is the expansion of the fat deposit. In fact, a number of surgical therapeutic strategies are aimed directly at reducing the mass of fat in TAO. These have been variably successful in reducing the mechanical embarrassment imposed by excessive fat volumes in TAO. […] While only a small fraction of orbital fibroblasts undergo differentiation into mature adipocytes, the fraction is invariant with regard to whether the fibroblasts were from a patient with TAO or from normal orbital tissues. While this discovery was of substantial interest to us, we realized that the differentiation of such a small fraction of cells might preclude determining the phenotypic changes accompanying them. However, referring to FIGS. 12A-12D, transient exposure to the PPARγ ligand (rosiglitazone) 45 to 65% of the cells in a parent strain matured to adipocytes showing that orbital fibroblasts express abundant PPARγ. […]
# IL-16 = IL-16 ELISA of medium from treated fibroblasts, GD donors; type: cell-based, human; details: TAO orbital fibroblasts; IGF-1 10 nM, TSH high concentrations
# From the text: (§1) In addition to its therapeutic aspects, the present invention also relates to a diagnostic method for detecting the presence of antibody-activated fibroblasts in the patient. Applicants believe that several auto immune diseases or disorders are associated with antibody-activated fibroblasts. […] Altered levels of these chemoattractants can be detected in various biological samples in mammals, preferably humans. Levels of IL-16 and/or RANTES may be monitored in a patient, using standard techniques, as an indication of the deleterious aspects of the disease condition. Biological samples, including but not limited to serum, vitreous humor, aqueous humor, synovial fluid, and tissue, will be drawn from the patient using standard techniques. Particularly preferred are serum samples. The measurement of the IL-16 and RANTES levels may be monitored using any method possible to detect the levels of these proteins in biological samples. A preferred method of analysis is by ELISA as described in Sciaky, D. et al., J. Immunol. 164(7):3806-14, 2000. An ELISA specific for IL-16 can be used to assess the levels released by fibroblasts as described previously in Lim, K. G. et al., J. Immunol. 156(7): 2566-70, 1996. An ELISA specific for RANTES can be used according to the manufacturer's specification (BioSource Intl., Camarillo, Calif.).
# (§2) The levels of IL-16 and RANTES were then assessed with specific ELISAs. The ELISA assay for IL-16 is performed essentially as discussed in Sciaky D., Brazer, W., Center, D. M., Cruikshank, W. W. and Smith, T. J.: Cultured human fibroblasts express constitutive IL-16 mRNA: Cytokine induction of active IL-16 protein synthesis through a caspase-3-dependent mechanism. J. Immunol. 164(7):3806-14, 2000). An ELISA (BioSource) for RANTES was performed according to the manufacturer's instructions.
# RANTES = RANTES ELISA of medium from treated fibroblasts, GD donors; type: cell-based, human; details: TAO orbital fibroblasts; IGF-1 10 nM, TSH high concentrations
# From the text: as §1, §2
# orbital fibroblasts [2] = assay: IL-6 and IL-8 synthesis in orbital fibroblasts on CD40 ligation; type: cell-based, human; details: orbital fibroblasts treated with rCD154
# From the text: These include IL-6 and IL-8, two important molecules critical to the activation and trafficking of bone marrow derived cells to sites of inflammation and which have been implicated in Graves' disease. […] Nuclear translocation of NF-κB is provoked by CD40 ligation and inhibiting the activation of this transcriptional factor by stabilizing the NF-κB/IκB complex can block the induction of both IL-6 and IL-8.
molecule,measurement,setting,value
COc1cccc(-c2cc(=O)c3ccccc3o2)c1N [PD098059],effect on IL-16 and RANTES expression,IL-16 and RANTES,inhibition of expression
CS(=O)(=O)c1ccc(-n2nc(C(F)(F)F)cc2-c2ccc(F)cc2)cc1 [SC58125],effect on up-regulation of PGE2 synthesis,TAO fibroblasts,blockage
C[S+]([O-])c1ccc(-c2nc(-c3ccncc3)c(-c3ccc(F)cc3)[nH]2)cc1 (stereo not shown) [SB203580],effect on IL-16 and RANTES expression,IL-16 and RANTES,inhibition of expression
CN(CCOc1ccc(CC2SC(=O)NC2=O)cc1)c1ccccn1 (stereo not shown) [rosiglitazone],cells matured (differentiated) to adipocytes,orbital fibroblasts [1],44%
"IGF-1: authentic IGF-1, ligand of the IGF-1 receptor",induction of IL-16 expression by the substance itself,IL-16,mimicked
same,induction of RANTES expression by the substance itself,RANTES,mimicked
"rCD154: recombinant CD40 ligand, member of the TNF-α superfamily (protein, UniProt P29965 113-261, looked up) CD40 ligand, soluble form: MQKGDQNPQIAAHVISEASSKTTSVLQWAEKGYYTMSNNLVTLENGKQLTVKRQGLYYIYAQVTFCSNREASSQAPFIASLCLKSPGRFERILLRAANTHSSAKPCGQQSIHLGGVFELQPGASVFVNVTDPSQVSHGTGFTSFGLLKL",synthesis of both IL-6 and IL-8,orbital fibroblasts [2],dramatically increased
